Experimental data from PubChem BioAssay AID258 (DTP/NCI, 2004).
Where “and” joins values, the source holds several entries; their conditions need not be identical. Equal entries are not always repeated. Toxic doses and inconclusive results are not listed.

Test system: CD2F1 mice, L1210 leukemia sc, survival T/C
Assay: NCI In Vivo Anticancer Drug Screen. Data for tumor model L1210 Leukemia (subcutaneous) in CD2F1 (CDF1) mice
Settings: higher = longer survival
Method in brief: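 Compound given to mice bearing transplantable tumor. Survival or tumor size then recorded. Result expressed relative to vehicle-dosed control group as T/C.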

[1] = endpoint: median survival time, dose: 12.5 mg/kg/injection, schedule: Q01DX009 (ip), vehicle: saline
[2] = endpoint: median survival time, dose: 0.25 mg/kg/injection, schedule: Q01DX009 (ip), vehicle: saline
[3] = endpoint: median survival time, dose: 0.25 mg/kg/injection, schedule: Q01DX009 (sc), vehicle: saline
[4] = endpoint: median survival time, dose: 0.5 mg/kg/injection, schedule: Q01DX009 (ip), vehicle: saline
[5] = endpoint: median survival time, dose: 0.5 mg/kg/injection, schedule: Q01DX009 (sc), vehicle: saline
[6] = endpoint: median survival time, dose: 1.0 mg/kg/injection, schedule: Q01DX009 (ip), vehicle: saline
[7] = endpoint: median survival time, dose: 1.0 mg/kg/injection, schedule: Q01DX009 (sc), vehicle: saline
[8] = endpoint: median survival time, dose: 2.0 mg/kg/injection, schedule: Q01DX009 (ip), vehicle: saline
[9] = endpoint: median survival time, dose: 2.0 mg/kg/injection, schedule: Q01DX009 (sc), vehicle: saline
[10] = endpoint: median survival time, dose: 4.0 mg/kg/injection, schedule: Q01DX009 (ip), vehicle: saline

Structure (SMILES): CN(C)/N=N/c1nc[nH]c1C(N)=O
- T/C (endpoint: mean survival time, dose: 39.0 mg/kg/injection, schedule: Q01DX009 (sc), vehicle: steriod suspending solution): 118 % of control
- T/C (endpoint: mean survival time, dose: 50.0 mg/kg/injection, schedule: Q01DX017 (sc), vehicle: steriod suspending solution): 117 % of control
- T/C (endpoint: mean survival time, dose: 65.0 mg/kg/injection, schedule: Q01DX009 (sc), vehicle: steriod suspending solution): 118 % of control
- T/C (endpoint: mean survival time, dose: 200.0 mg/kg/injection, schedule: Q01DX017 (sc), vehicle: steriod suspending solution): 156 % of control
- T/C (endpoint: mean survival time, dose: 400.0 mg/kg/injection, schedule: Q01DX017 (sc), vehicle: steriod suspending solution): 172 % of control
- T/C (endpoint: median survival time, dose: 6.25 mg/kg/injection, schedule: Q01DX009 (ip), vehicle: saline): 104 % of control
- T/C [1]: 121 % of control
- T/C (endpoint: median survival time, dose: 39.0 mg/kg/injection, schedule: Q01DX009 (sc), vehicle: steriod suspending solution): 114 % of control
- T/C (endpoint: median survival time, dose: 39.0 mg/kg/injection, schedule: Q01DX Z (sc), vehicle: steriod suspending solution): 111 % of control
- T/C (endpoint: median survival time, dose: 50.0 mg/kg/injection, schedule: Q01DX017 (sc), vehicle: steriod suspending solution): 118 % of control and 122 % of control
- T/C (endpoint: median survival time, dose: 65.0 mg/kg/injection, schedule: Q01DX009 (sc), vehicle: steriod suspending solution): 117 % of control
- T/C (endpoint: median survival time, dose: 65.0 mg/kg/injection, schedule: Q01DX Z (sc), vehicle: carboxymethylcellulose (CMC)): 100 % of control
- T/C (endpoint: median survival time, dose: 65.0 mg/kg/injection, schedule: Q01DX Z (sc), vehicle: steriod suspending solution): 116 % of control
- T/C (endpoint: median survival time, dose: 100.0 mg/kg/injection, schedule: Q01DX009 (ip), vehicle: saline with Tween-80): 157 % of control
- T/C (endpoint: median survival time, dose: 100.0 mg/kg/injection, schedule: Q01DX009 (ip), vehicle: saline): 157 % of control
- T/C (endpoint: median survival time, dose: 100.0 mg/kg/injection, schedule: Q01DX009 (sc), vehicle: saline): 151 % of control
- T/C (endpoint: median survival time, dose: 108.0 mg/kg/injection, schedule: Q01DX Z (sc), vehicle: carboxymethylcellulose (CMC)): 100 % of control
- T/C (endpoint: median survival time, dose: 150.0 mg/kg/injection, schedule: Q01DX009 (ip), vehicle: saline): 178 % of control
- T/C (endpoint: median survival time, dose: 180.0 mg/kg/injection, schedule: Q01DX Z (sc), vehicle: carboxymethylcellulose (CMC)): 100 % of control
- T/C (endpoint: median survival time, dose: 200.0 mg/kg/injection, schedule: Q01DX009 (ip), vehicle: saline with Tween-80): 160 % of control
- T/C (endpoint: median survival time, dose: 200.0 mg/kg/injection, schedule: Q01DX009 (ip), vehicle: saline): 166 % of control
- T/C (endpoint: median survival time, dose: 200.0 mg/kg/injection, schedule: Q01DX017 (sc), vehicle: steriod suspending solution): 152 % of control and 155 % of control
- T/C (endpoint: median survival time, dose: 225.0 mg/kg/injection, schedule: Q01DX009 (sc), vehicle: saline): 186 % of control
- T/C (endpoint: median survival time, dose: 300.0 mg/kg/injection, schedule: Q01DX009 (ip), vehicle: saline): 172 % of control
- T/C (endpoint: median survival time, dose: 300.0 mg/kg/injection, schedule: Q01DX009 (sc), vehicle: steriod suspending solution): 153 % of control
- T/C (endpoint: median survival time, dose: 300.0 mg/kg/injection, schedule: Q01DX Z (sc), vehicle: carboxymethylcellulose (CMC)): 100 % of control
- T/C (endpoint: median survival time, dose: 300.0 mg/kg/injection, schedule: Q01DX Z (sc), vehicle: steriod suspending solution): 155 % of control
- T/C (endpoint: median survival time, dose: 400.0 mg/kg/injection, schedule: Q01DX017 (sc), vehicle: steriod suspending solution): 175 % of control and 177 % of control
- T/C (endpoint: median survival time, dose: 500.0 mg/kg/injection, schedule: Q01DX Z (sc), vehicle: carboxymethylcellulose (CMC)): 111 % of control and 100 % of control
- T/C (endpoint: median survival time, dose: 600.0 mg/kg/injection, schedule: Q01DX009 (sc), vehicle: saline + alcohol): 160 % of control
- T/C (endpoint: median survival time, dose: 600.0 mg/kg/injection, schedule: Q01DX009 (sc), vehicle: saline): 118 % of control
- T/C (endpoint: median survival time, dose: 800.0 mg/kg/injection, schedule: Q01DX009 (ip), vehicle: saline with Tween-80): 96 % of control
- T/C (endpoint: median survival time, dose: 833.0 mg/kg/injection, schedule: Q01DX Z (sc), vehicle: carboxymethylcellulose (CMC)): 150 % of control
- T/C (endpoint: median survival time, dose: 900.0 mg/kg/injection, schedule: Q01DX009 (sc), vehicle: saline + alcohol): 155 % of control
- T/C (endpoint: median survival time, dose: 1200.0 mg/kg/injection, schedule: Q01DX009 (sc), vehicle: saline): 90 % of control
- T/C (endpoint: median survival time, dose: 1388.0 mg/kg/injection, schedule: Q01DX Z (sc), vehicle: carboxymethylcellulose (CMC)): 155 % of control

Structure (SMILES): Cc1c(-c2ccc(-c3ccccc3F)cc2)nc2ccc(F)cc2c1C(=O)O
- T/C [1]: 153 % of control
- T/C (endpoint: median survival time, dose: 25.0 mg/kg/injection, schedule: Q01DX009 (ip), vehicle: saline): 156 % of control
- T/C (endpoint: median survival time, dose: 50.0 mg/kg/injection, schedule: Q01DX009 (ip), vehicle: saline): 150 % of control

Structure (SMILES): S=c1nc[nH]c2c1ncn2C1CCCC1
- T/C (endpoint: median survival time, dose: 108.0 mg/kg/injection, schedule: Q01DX Z (sc), vehicle: methylcellulose (MC)): 100 % of control
- T/C (endpoint: median survival time, dose: 180.0 mg/kg/injection, schedule: Q01DX Z (sc), vehicle: methylcellulose (MC)): 100 % of control
- T/C (endpoint: median survival time, dose: 300.0 mg/kg/injection, schedule: Q01DX Z (sc), vehicle: methylcellulose (MC)): 100 % of control
- T/C (endpoint: median survival time, dose: 500.0 mg/kg/injection, schedule: Q01DX Z (sc), vehicle: methylcellulose (MC)): 100 % of control
- T/C (endpoint: median survival time, dose: 833.0 mg/kg/injection, schedule: Q01DX Z (sc), vehicle: methylcellulose (MC)): 100 % of control
- T/C (endpoint: median survival time, dose: 1388.0 mg/kg/injection, schedule: Q01DX Z (sc), vehicle: methylcellulose (MC)): 100 % of control

Structure (SMILES): COc1cccc2c1C(=O)c1c(O)c3c(c(O)c1C2=O)C[C@@](O)(C(=O)CO)C[C@@H]3OC1CC(N)C(O)C(C)O1 (some centres undefined)
- T/C [2]: 101 % of control and 98 % of control
- T/C [3]: 98 % of control
- T/C [4]: 103 % of control and 107 % of control and 98 % of control
- T/C [5]: 101 % of control
- T/C [6]: 100 % of control and 106 % of control and 123 % of control
- T/C [7]: 110 % of control
- T/C [8]: 111 % of control and 115 % of control and 123 % of control
- T/C [9]: 117 % of control and 120 % of control
- T/C (endpoint: median survival time, dose: 2.5 mg/kg/injection, schedule: Q01DX009 (sc), vehicle: saline): 114 % of control
- T/C (endpoint: median survival time, dose: 3.0 mg/kg/injection, schedule: Q01DX009 (sc), vehicle: saline): 116 % of control
- T/C (endpoint: median survival time, dose: 3.5 mg/kg/injection, schedule: Q01DX009 (sc), vehicle: saline): 120 % of control
- T/C [10]: 110 % of control and 92 % of control and 97 % of control
- T/C (endpoint: median survival time, dose: 5.0 mg/kg/injection, schedule: Q01DX009 (sc), vehicle: saline): 116 % of control
- T/C (endpoint: median survival time, dose: 6.0 mg/kg/injection, schedule: Q01DX009 (sc), vehicle: saline): 102 % of control
- T/C (endpoint: median survival time, dose: 8.0 mg/kg/injection, schedule: Q01DX009 (sc), vehicle: saline): 113 % of control and 89 % of control

Structure (SMILES): CC(=O)OC1COC(NC(=O)N(CCCl)N=O)C(OC(C)=O)C1OC(C)=O (centres undefined)
- T/C (endpoint: median survival time, dose: 0.75 mg/kg/injection, schedule: Q01DX009 (ip), vehicle: saline with Tween-80): 104 % of control
- T/C (endpoint: median survival time, dose: 1.5 mg/kg/injection, schedule: Q01DX009 (ip), vehicle: saline with Tween-80): 102 % of control
- T/C (endpoint: median survival time, dose: 3.0 mg/kg/injection, schedule: Q01DX009 (ip), vehicle: saline with Tween-80): 102 % of control and 122 % of control
- T/C (endpoint: median survival time, dose: 12.0 mg/kg/injection, schedule: Q01DX009 (ip), vehicle: saline with Tween-80): 158 % of control and 297 % of control

Structure (SMILES): COc1cccc2c1C(=O)c1c(O)c3c(c(O)c1C2=O)C[C@@](O)(C(C)=O)C[C@@H]3OC1CC(N)C(O)C(C)O1 (some centres undefined)
- T/C [2]: 97 % of control and 100 % of control
- T/C [3]: 98 % of control
- T/C [4]: 96 % of control and 98 % of control
- T/C [5]: 104 % of control
- T/C [6]: 101 % of control and 96 % of control (2×)
- T/C [7]: 107 % of control
- T/C (endpoint: median survival time, dose: 1.5 mg/kg/injection, schedule: Q01DX009 (ip), vehicle: saline): 100 % of control
- T/C [8]: 101 % of control and 102 % of control and 98 % of control
- T/C [9]: 109 % of control
- T/C (endpoint: median survival time, dose: 3.0 mg/kg/injection, schedule: Q01DX009 (ip), vehicle: saline): 97 % of control
- T/C [10]: 98 % of control
- T/C (endpoint: median survival time, dose: 4.0 mg/kg/injection, schedule: Q01DX009 (sc), vehicle: saline): 120 % of control
- T/C (endpoint: median survival time, dose: 16.0 mg/kg/injection, schedule: Q01DX009 (sc), vehicle: saline): 118 % of control
- T/C (endpoint: median survival time, dose: 23.0 mg/kg/injection, schedule: Q01DX Z (sc), vehicle: water): 120 % of control

Structure (SMILES): Nc1nc2c(c(=O)[nH]1)NC(CCNc1ccc(C(=O)NC(CCC(=O)O)C(=O)O)cc1)CN2 (centres undefined)
- T/C (endpoint: median survival time, dose: 25.0 mg/kg/injection, schedule: Q03HX Z (ip), vehicle: other): 120 % of control
- T/C (endpoint: median survival time, dose: 50.0 mg/kg/injection, schedule: Q03HX Z (ip), vehicle: other): 120 % of control
- T/C (endpoint: median survival time, dose: 100.0 mg/kg/injection, schedule: Q01DX Z (ip), vehicle: other): 120 % of control
- T/C (endpoint: median survival time, dose: 100.0 mg/kg/injection, schedule: Q04DX Z (ip), vehicle: other): 100 % of control
- T/C (endpoint: median survival time, dose: 200.0 mg/kg/injection, schedule: Q04DX Z (ip), vehicle: other): 100 % of control
- T/C (endpoint: median survival time, dose: 800.0 mg/kg/injection, schedule: Q01DX Z (ip), vehicle: other): 100 % of control
